How the values were obtained:
[1] = tested on: Monocotyledonous and dicotyledonous test plants; assay: Herbicidal action before emergence of the plants (pre-emergence action); type: in vivo; settings: evaluated after 3 weeks, nine-step scale; for pre-emergence action, Cyperus / pre-emergence action, Ipomoea / pre-emergence action, Setaria / pre-emergence action, Sinapis / pre-emergence action, Solanum / pre-emergence action, Stellaria: 2000 g/ha; for Pre-emergence action, Abutilon / Pre-emergence action, Amaranthus / Pre-emergence action, Chenop. / Pre-emergence action, Digitaria / Pre-emergence action, Echino. / Pre-emergence action, Panicum: 250 g/ha
How it was run: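 Sprayed onto soil immediately after sowing as WP suspension or EC emulsion at 2 kg or 250 g a.i./ha (500 l water/ha). Greenhouse growth for 3 weeks, then scored on a nine-step scale (1 = complete damage, 9 = no effect).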

[2] = tested on: Monocotyledonous and dicotyledonous test plants; assay: Post-emergence herbicidal action; type: in vivo; settings: evaluated after approximately 18 days; for Post-emergence action, Ipomoea / Post-emergence action, Lolium / Post-emergence action, Setaria / Post-emergence action, Sinapis / Post-emergence action, Solanum / Post-emergence action, Stellaria: 2000 g/ha, sprayed in 4- to 6-leaf stage, nine-step scale; for Post-emergence action: Abutilon (score, nine-step scale) / Post-emergence action: Chenop. (score, nine-step scale) / Post-emergence action: Digitaria (score, nine-step scale) / Post-emergence action: Echino. (score, nine-step scale) / Post-emergence action: Ipopur. (score, nine-step scale) / Post-emergence action: Panicum (score, nine-step scale) / Post-emergence action: Xanth. (score, nine-step scale): 250 g/ha, sprayed at 4- to 6-leaf stage
How it was run: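 Scoring uses a 1–9 scale (1 complete damage, 9 no effect), read roughly 18 days post-application. Compounds were applied post-emergence at 4–6 leaves, as aqueous suspension (25% wettable powder) or emulsion (25% emulsion concentrate), at 250 g or 2 kg a.i./ha in 500 l water/ha.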

Cc1nc(C(F)(F)F)ccc1C(=O)C1=C(Sc2ccccc2)CCCC1=O [Compound A2-B1102, 2-(2-methyl-6-trifluoromethylpyridine-3-carbonyl)-3-phenylsulfanylcyclohex-2-enone]
melting point: 124 to 125 °C

Cc1nc(C(F)(F)F)ccc1C(=O)C1=C(S(=O)(=O)c2ccccc2)CCCC1=O [Compound A2-B1104, 3-Benzenesulfonyl-2-(2-methyl-6-trifluoromethylpyridine-3-carbonyl)cyclohex-2-enone]
melting point: 165 to 167 °C

Cc1nc(C(F)(F)F)ccc1C(=O)C1=C(Cl)C(C)(C)C(=O)C(C)(C)C1=O [Compound A2-B1105, 5-Chloro-2,2,6,6-tetramethyl-4-(2-methyl-6-trifluoromethylpyridine-3-carbonyl)cyclohex-4-ene-1,3-dione]
melting point: 119 °C

COCc1nc(C(F)(F)F)ccc1C(=O)C1=C([S+]([O-])c2ccccc2)CCCC1=O (stereo not shown) [Compound A8-B1103]
pre-emergence action, Cyperus [1]: 1
pre-emergence action, Ipomoea [1]: 3
pre-emergence action, Setaria [1]: 2
pre-emergence action, Sinapis [1]: 1
pre-emergence action, Solanum [1]: 1
pre-emergence action, Stellaria [1]: 2
Post-emergence action, Ipomoea [2]: 1
Post-emergence action, Lolium [2]: 4
Post-emergence action, Setaria [2]: 1
Post-emergence action, Sinapis [2]: 1
Post-emergence action, Solanum [2]: 1
Post-emergence action, Stellaria [2]: 1

COCCc1nc(C(F)(F)F)ccc1C(=O)C1=C(O)CCCC1=O [Compound A9-B1]
pre-emergence action, Cyperus [1]: 2
pre-emergence action, Ipomoea [1]: 1
pre-emergence action, Setaria [1]: 2
pre-emergence action, Sinapis [1]: 1
pre-emergence action, Solanum [1]: 1
pre-emergence action, Stellaria [1]: 2
Post-emergence action, Ipomoea [2]: 2
Post-emergence action, Lolium [2]: 4
Post-emergence action, Setaria [2]: 2
Post-emergence action, Sinapis [2]: 2
Post-emergence action, Solanum [2]: 2
Post-emergence action, Stellaria [2]: 2

CC1(C)CCC(=O)C(C(=O)c2ccc(C(F)(F)F)nc2C(F)F)=C1O [Compound A18-B24]
pre-emergence action, Cyperus [1]: 1
pre-emergence action, Ipomoea [1]: 1
pre-emergence action, Setaria [1]: 1
pre-emergence action, Sinapis [1]: 1
pre-emergence action, Solanum [1]: 1
pre-emergence action, Stellaria [1]: 2
Post-emergence action, Ipomoea [2]: 1
Post-emergence action, Lolium [2]: 2
Post-emergence action, Setaria [2]: 2
Post-emergence action, Sinapis [2]: 1
Post-emergence action, Solanum [2]: 2
Post-emergence action, Stellaria [2]: 2

Cc1nc(C(F)(F)C(F)(F)F)ccc1C(=O)C1=C(O)CCCC1=O [Compound A34-B1]
pre-emergence action, Cyperus [1]: 1
pre-emergence action, Ipomoea [1]: 2
pre-emergence action, Setaria [1]: 2
pre-emergence action, Sinapis [1]: 2
pre-emergence action, Solanum [1]: 2
pre-emergence action, Stellaria [1]: 3
Post-emergence action, Ipomoea [2]: 1
Post-emergence action, Lolium [2]: 2
Post-emergence action, Setaria [2]: 2
Post-emergence action, Sinapis [2]: 1
Post-emergence action, Solanum [2]: 1
Post-emergence action, Stellaria [2]: 2

Cc1nc(C(F)(F)C(F)(F)C(F)(F)F)ccc1C(=O)C1=C(O)C(C)(C)CCC1=O [Compound A64-B24]
pre-emergence action, Cyperus [1]: 4
pre-emergence action, Ipomoea [1]: 4
pre-emergence action, Setaria [1]: 2
pre-emergence action, Sinapis [1]: 2
pre-emergence action, Solanum [1]: 1
pre-emergence action, Stellaria [1]: 2
Post-emergence action, Ipomoea [2]: 2
Post-emergence action, Lolium [2]: 2
Post-emergence action, Setaria [2]: 4
Post-emergence action, Sinapis [2]: 1
Post-emergence action, Solanum [2]: 2
Post-emergence action, Stellaria [2]: 2

Cc1nc(C(F)(F)Cl)ccc1C(=O)C1=C(O)CCCC1=O [Compound A94-B1]
pre-emergence action, Cyperus [1]: 1
pre-emergence action, Ipomoea [1]: 2
pre-emergence action, Setaria [1]: 2
pre-emergence action, Sinapis [1]: 1
pre-emergence action, Solanum [1]: 1
pre-emergence action, Stellaria [1]: 2
Post-emergence action, Ipomoea [2]: 1
Post-emergence action, Lolium [2]: 2
Post-emergence action, Setaria [2]: 2
Post-emergence action, Sinapis [2]: 1
Post-emergence action, Solanum [2]: 1
Post-emergence action, Stellaria [2]: 1

COC(=O)C1(C)CCC(=O)C(C(=O)c2ccc(C(F)(F)Cl)nc2C)=C1O (stereo not shown) [Compound A94-B34, methyl 3-[6-(chlorodifluoromethyl)-2-methylpyridine-3-carbonyl]-2-hydroxy-1-methyl-4-oxocyclohex-2-enecarboxylate]
melting point: 108 to 110 °C

Cc1cc(C(=O)C2=C(O)CCCC2=O)c(C)nc1C(F)(F)F [Compound A184-B1]
pre-emergence action, Cyperus [1]: 2
pre-emergence action, Ipomoea [1]: 4
pre-emergence action, Setaria [1]: 2
pre-emergence action, Sinapis [1]: 2
pre-emergence action, Solanum [1]: 1
pre-emergence action, Stellaria [1]: 2
Post-emergence action, Ipomoea [2]: 1
Post-emergence action, Lolium [2]: 3
Post-emergence action, Setaria [2]: 2
Post-emergence action, Sinapis [2]: 1
Post-emergence action, Solanum [2]: 2
Post-emergence action, Stellaria [2]: 2

Cc1cc(C(=O)C2=C(O)C(C)(C)CCC2=O)c(C)nc1C(F)(F)F [Compound A184-B24]
pre-emergence action, Cyperus [1]: 1
pre-emergence action, Ipomoea [1]: 3
pre-emergence action, Setaria [1]: 2
pre-emergence action, Sinapis [1]: 2
pre-emergence action, Solanum [1]: 1
pre-emergence action, Stellaria [1]: 2
Post-emergence action, Ipomoea [2]: 1
Post-emergence action, Lolium [2]: 2
Post-emergence action, Setaria [2]: 2
Post-emergence action, Sinapis [2]: 1
Post-emergence action, Solanum [2]: 2
Post-emergence action, Stellaria [2]: 2

CC1(C)C(=O)C(C(=O)c2ccc(C(F)(F)F)nc2CBr)=C(Cl)C(C)(C)C1=O [Compound A1029-B1105, 4-(2-Bromomethyl-6-trifluoromethylpyridine-3-carbonyl)-5-chloro-2,2,6,6-tetramethylcyclohex-4-ene-1,3-dione]
melting point: 94.5 to 95 °C

CCOC(=O)OCc1nc(C(F)(F)F)ccc1C(=O)C1=C(O)C(C)(C)C(=O)C(C)(C)C1=O [Compound A1208-B354]
Pre-emergence action, Abutilon [1]: 1
Pre-emergence action, Amaranthus [1]: 1
Pre-emergence action, Chenop. [1]: 1
Pre-emergence action, Digitaria [1]: 1
Pre-emergence action, Echino. [1]: 1
Pre-emergence action, Panicum [1]: 1
Post-emergence action: Abutilon (score, nine-step scale) [2]: 1
Post-emergence action: Chenop. (score, nine-step scale) [2]: 2
Post-emergence action: Digitaria (score, nine-step scale) [2]: 4
Post-emergence action: Echino. (score, nine-step scale) [2]: 2
Post-emergence action: Ipopur. (score, nine-step scale) [2]: 2
Post-emergence action: Panicum (score, nine-step scale) [2]: 3
Post-emergence action: Xanth. (score, nine-step scale) [2]: 2

Cc1c(C(=O)C2=C(O)C(C)(C)C(=O)C(C)(C)C2=O)ccc(C(F)(F)F)[n+]1[O-] [Compound A1210-B354]
pre-emergence action, Cyperus [1]: 2
pre-emergence action, Ipomoea [1]: 3
pre-emergence action, Setaria [1]: 2
pre-emergence action, Sinapis [1]: 1
pre-emergence action, Solanum [1]: 1
pre-emergence action, Stellaria [1]: 2
Post-emergence action, Ipomoea [2]: 2
Post-emergence action, Lolium [2]: 2
Post-emergence action, Setaria [2]: 2
Post-emergence action, Sinapis [2]: 1
Post-emergence action, Solanum [2]: 1
Post-emergence action, Stellaria [2]: 2

Cc1c(C(=O)C2=C(Cl)C(C)(C)C(=O)C(C)(C)C2=O)ccc(C(F)(F)F)[n+]1[O-] [Compound A1210-B1105, 5-Chloro-2,2,6,6-tetramethyl-4-(2-methyl-1-oxy-6-trifluoromethylpyridine-3-carbonyl)cyclohex-4-ene-1,3-dione]
Pre-emergence action, Abutilon [1]: 1
Pre-emergence action, Amaranthus [1]: 4
Pre-emergence action, Chenop. [1]: 1
Pre-emergence action, Digitaria [1]: 3
Pre-emergence action, Echino. [1]: 2
Pre-emergence action, Panicum [1]: 2
Post-emergence action: Abutilon (score, nine-step scale) [2]: 2
Post-emergence action: Chenop. (score, nine-step scale) [2]: 1
Post-emergence action: Digitaria (score, nine-step scale) [2]: 2
Post-emergence action: Echino. (score, nine-step scale) [2]: 3
Post-emergence action: Ipopur. (score, nine-step scale) [2]: 2
Post-emergence action: Panicum (score, nine-step scale) [2]: 1
Post-emergence action: Xanth. (score, nine-step scale) [2]: 2

Source: patent US6673938B1, “Substituted pyridine herbicides” (Syngenta Participations AG, priority 1998, dated 2004)
